Assay results: the NIST ThermoML archive (doi:10.1021/je900414p)

Test: xn = mol fraction of the nth substance listed
Conditions: Liquid

CCOS(=O)(=O)[O-].CCn1cc[n+](C)c1 [1-ethyl-3-methylimidazolium ethyl sulfate] + CCO
mass density [kg/m3]
Conditions	100 kPa	2500 kPa	5000 kPa	10000 kPa	15000 kPa	20000 kPa	25000 kPa	30000 kPa	35000 kPa
313.15 K, x1 = 0.05056	843.63	845.7	847.81	851.86	855.73	859.44	862.99	866.42	869.72
313.15 K, x1 = 0.103	902	903.78	905.71	909.43	912.99	916.4	919.72	922.91	926.01
313.15 K, x1 = 0.1247	923.22	925.01	926.88	930.46	933.91	937.23	940.45	943.56	946.56
313.15 K, x1 = 0.2126	992.44	994.08	995.74	998.97	1002.07	1005.09	1008.03	1010.88	1013.65
313.15 K, x1 = 0.2919	1041.3	1042.32	1043.83	1046.78	1049.64	1052.42	1055.15	1057.79	1060.38
313.15 K, x1 = 0.3185	1054.58	1055.91	1057.39	1060.28	1063.09	1065.82	1068.49	1071.08	1073.63
313.15 K, x1 = 0.4198	1098.28	1099.64	1101.01	1103.69	1106.3	1108.84	1111.34	1113.78	1116.18
313.15 K, x1 = 0.4847	1120.82	1122.08	1123.39	1125.96	1128.48	1130.94	1133.35	1135.7	1138.01
313.15 K, x1 = 0.5713	1146.49	1147.66	1148.92	1151.37	1153.79	1156.13	1158.44	1160.72	1162.93
313.15 K, x1 = 0.6827	1173.47	1174.61	1175.83	1178.16	1180.44	1182.7	1184.92	1187.08	1189.22
313.15 K, x1 = 0.7919	1195.34	1196.17	1197.31	1199.56	1201.76	1203.92	1206.06	1208.15	1210.22
313.15 K, x1 = 0.9317	1217.11	1218.16	1219.26	1221.43	1223.56	1225.65	1227.71	1229.75	1231.75
323.15 K, x1 = 0.05056	835.32	837.47	839.71	843.97	848.02	851.88	855.6	859.16	862.58
323.15 K, x1 = 0.103	893.98	895.85	897.87	901.75	905.47	909.03	912.49	915.79	919.01
323.15 K, x1 = 0.1247	915.32	917.14	919.07	922.82	926.4	929.85	933.19	936.42	939.53
323.15 K, x1 = 0.2126	984.81	986.48	988.21	991.57	994.8	997.91	1000.95	1003.91	1006.77
323.15 K, x1 = 0.2919	1034.05	1035.04	1036.64	1039.7	1042.66	1045.53	1048.35	1051.07	1053.73
323.15 K, x1 = 0.3185	1047.28	1048.63	1050.16	1053.16	1056.05	1058.87	1061.63	1064.29	1066.91
323.15 K, x1 = 0.4198	1091.13	1092.5	1093.93	1096.7	1099.39	1102.02	1104.58	1107.1	1109.55
323.15 K, x1 = 0.4847	1113.75	1115	1116.36	1119.02	1121.59	1124.12	1126.59	1129.01	1131.39
323.15 K, x1 = 0.5713	1139.53	1140.71	1142.02	1144.55	1147.01	1149.42	1151.81	1154.14	1156.41
323.15 K, x1 = 0.6827	1166.57	1167.74	1168.97	1171.37	1173.72	1176.03	1178.31	1180.52	1182.71
323.15 K, x1 = 0.7919	1188.51	1189.35	1190.5	1192.81	1195.06	1197.29	1199.48	1201.62	1203.73
323.15 K, x1 = 0.9317	1210.34	1211.42	1212.55	1214.78	1216.96	1219.11	1221.21	1223.29	1225.34
